Experimental data taken from the NIST ThermoML archive (doi:10.1016/j.jct.2013.09.042).
Numbers after ± are expanded uncertainties.

What was measured:
[1] = Crystal; for vapor or sublimation pressure: Transpiration method; for Normal melting temperature: DTA
[2] = Molar enthalpy of transition or fusion; conditions: Crystal; DSC

For `Cc1ccc(N=C2SCC3CCCN2C3)cc1Cl` (centres undefined), the “vapor or sublimation pressure” value ([1]; 376.15 K) was 3.1e-05 ± 3.3e-06 kPa, the “vapor or sublimation pressure” value ([1]; 377.15 K) was 3.39e-05 ± 3.6e-06 kPa and the “vapor or sublimation pressure” value ([1]; 378.15 K) was 3.79e-05 ± 4e-06 kPa. The “vapor or sublimation pressure” value ([1]; 379.15 K) was 4.05e-05 ± 4.3e-06 kPa, the “vapor or sublimation pressure” value ([1]; 381.15 K) was 5.21e-05 ± 5.6e-06 kPa and the “vapor or sublimation pressure” value ([1]; 382.15 K) was 5.74e-05 ± 6.1e-06 kPa. For the same molecule, the “vapor or sublimation pressure” value ([1]; 383.15 K) was 6.78e-05 ± 7.2e-06 kPa, the “vapor or sublimation pressure” value ([1]; 384.15 K) was 7.6e-05 ± 8.1e-06 kPa and the “vapor or sublimation pressure” value ([1]; 386.15 K) was 9.31e-05 ± 9.9e-06 kPa. For the same molecule, the “vapor or sublimation pressure” value ([1]; 388.15 K) was 0.0001239 ± 1.3e-05 kPa, the “vapor or sublimation pressure” value ([1]; 390.15 K) was 0.0001553 ± 1.7e-05 kPa and the “vapor or sublimation pressure” value ([1]; 392.15 K) was 0.0002006 ± 2.1e-05 kPa. The “vapor or sublimation pressure” value ([1]; 394.15 K) was 0.0002521 ± 2.7e-05 kPa, the “vapor or sublimation pressure” value ([1]; 396.15 K) was 0.0003109 ± 3.3e-05 kPa and the Normal melting temperature [1] was 133.5 ± 0.5 °C. For the same molecule, the “Molar enthalpy of transition or fusion” value [2] was 5.43 ± 0.263 kcal/mol.

In the case of `Clc1ccc(N=C2SCC3CCCN2C3)cc1Cl` (centres undefined), the “vapor or sublimation pressure” value ([1]; 352.15 K) is reported as 1.15e-05 ± 1.2e-06 kPa, the “vapor or sublimation pressure” value ([1]; 353.15 K) is reported as 1.25e-05 ± 1.4e-06 kPa and the “vapor or sublimation pressure” value ([1]; 354.15 K) is reported as 1.59e-05 ± 1.7e-06 kPa. The “vapor or sublimation pressure” value ([1]; 355.15 K) was 1.82e-05 ± 2e-06 kPa, the “vapor or sublimation pressure” value ([1]; 356.15 K) was 2.26e-05 ± 2.4e-06 kPa and the “vapor or sublimation pressure” value ([1]; 357.15 K) was 2.27e-05 ± 2.4e-06 kPa. For the same molecule, the “vapor or sublimation pressure” value ([1]; 358.15 K) was 2.56e-05 ± 2.7e-06 kPa, the “vapor or sublimation pressure” value ([1]; 359.15 K) was 2.58e-05 ± 2.8e-06 kPa and the “vapor or sublimation pressure” value ([1]; 360.15 K) was 2.91e-05 ± 3.1e-06 kPa. For the same molecule, the “vapor or sublimation pressure” value ([1]; 361.15 K) was 3.49e-05 ± 3.7e-06 kPa, the “vapor or sublimation pressure” value ([1]; 362.15 K) was 4e-05 ± 4.3e-06 kPa and the “vapor or sublimation pressure” value ([1]; 363.15 K) was 4.4e-05 ± 4.7e-06 kPa. The Normal melting temperature [1] was 97.8 ± 0.5 °C and the “Molar enthalpy of transition or fusion” value [2] was 5.62 ± 0.263 kcal/mol.

In the case of `Clc1ccc(N=C2SCC3CCCN2C3)cc1` (centres undefined) [N-(4-chlorophenyl)-3-thia-1-azabicyclo[3.3.1]nonan-2-imine], the “vapor or sublimation pressure” value ([1]; 368.15 K) is reported as 6.26e-05 ± 6.7e-06 kPa, the “vapor or sublimation pressure” value ([1]; 369.15 K) is reported as 7.04e-05 ± 7.5e-06 kPa and the “vapor or sublimation pressure” value ([1]; 371.15 K) is reported as 8.91e-05 ± 9.5e-06 kPa. For the same molecule, the “vapor or sublimation pressure” value ([1]; 373.15 K) was 0.0001094 ± 1.2e-05 kPa, the “vapor or sublimation pressure” value ([1]; 374.15 K) was 0.0001327 ± 1.4e-05 kPa and the “vapor or sublimation pressure” value ([1]; 375.15 K) was 0.000149 ± 1.6e-05 kPa. For the same molecule, the “vapor or sublimation pressure” value ([1]; 376.15 K) was 0.0001659 ± 1.8e-05 kPa, the “vapor or sublimation pressure” value ([1]; 378.15 K) was 0.0002065 ± 2.2e-05 kPa and the “vapor or sublimation pressure” value ([1]; 380.15 K) was 0.0002459 ± 2.6e-05 kPa. For the same molecule, the “vapor or sublimation pressure” value ([1]; 382.15 K) was 0.0003128 ± 3.3e-05 kPa, the “vapor or sublimation pressure” value ([1]; 384.15 K) was 0.0003887 ± 4.1e-05 kPa and the “vapor or sublimation pressure” value ([1]; 386.15 K) was 0.0004737 ± 5e-05 kPa. For the same molecule, the “vapor or sublimation pressure” value ([1]; 388.15 K) was 0.0005748 ± 6.1e-05 kPa, the “vapor or sublimation pressure” value ([1]; 390.15 K) was 0.0007333 ± 7.8e-05 kPa and the “vapor or sublimation pressure” value ([1]; 391.15 K) was 0.0008441 ± 9e-05 kPa. For the same molecule, the Normal melting temperature [1] was 138.7 ± 0.5 °C and the “Molar enthalpy of transition or fusion” value [2] was 2.82 ± 0.239 kcal/mol.

With `CCc1ccc(N=C2SCC3CCCN2C3)cc1` (centres undefined) [N-(4-ethylphenyl)-3-thia-1-azabicyclo[3.3.1]nonan-2-imine] the “vapor or sublimation pressure” value ([1]; 359.15 K) was 1.09e-05 ± 1.2e-06 kPa, the “vapor or sublimation pressure” value ([1]; 362.15 K) was 1.35e-05 ± 1.5e-06 kPa and the “vapor or sublimation pressure” value ([1]; 364.15 K) was 1.75e-05 ± 1.9e-06 kPa. For the same molecule, the “vapor or sublimation pressure” value ([1]; 366.15 K) was 1.98e-05 ± 2.1e-06 kPa, the “vapor or sublimation pressure” value ([1]; 368.15 K) was 2.54e-05 ± 2.7e-06 kPa and the “vapor or sublimation pressure” value ([1]; 371.15 K) was 2.86e-05 ± 3.1e-06 kPa. For the same molecule, the “vapor or sublimation pressure” value ([1]; 374.15 K) was 3.88e-05 ± 4.1e-06 kPa, the “vapor or sublimation pressure” value ([1]; 376.15 K) was 3.03e-05 ± 1.5e-05 kPa and the “vapor or sublimation pressure” value ([1]; 377.15 K) was 5.41e-05 ± 5.8e-06 kPa. The “vapor or sublimation pressure” value ([1]; 380.15 K) was 6.76e-05 ± 7.2e-06 kPa, the “vapor or sublimation pressure” value ([1]; 381.15 K) was 7.59e-05 ± 8.1e-06 kPa and the “vapor or sublimation pressure” value ([1]; 382.15 K) was 8.41e-05 ± 9e-06 kPa. The “vapor or sublimation pressure” value ([1]; 384.15 K) was 8.43e-05 ± 9e-06 kPa, the “vapor or sublimation pressure” value ([1]; 386.15 K) was 0.0001059 ± 1.1e-05 kPa and the “vapor or sublimation pressure” value ([1]; 389.15 K) was 0.0001278 ± 1.4e-05 kPa. The Normal melting temperature [1] was 121.5 ± 0.5 °C and the “Molar enthalpy of transition or fusion” value [2] was 3.92 ± 0.263 kcal/mol.

For `Cc1cccc(N=C2SCC3CCCN2C3)c1` (centres undefined) [N-(m-tolyl)-3-thia-1-azabicyclo[3.3.1]nonan-2-imine], the “vapor or sublimation pressure” value ([1]; 353.15 K) was 5.65e-05 ± 6e-06 kPa, the “vapor or sublimation pressure” value ([1]; 355.15 K) was 7.21e-05 ± 7.7e-06 kPa and the “vapor or sublimation pressure” value ([1]; 357.15 K) was 9.52e-05 ± 1e-05 kPa. For the same molecule, the “vapor or sublimation pressure” value ([1]; 359.15 K) was 0.0001112 ± 1.2e-05 kPa, the “vapor or sublimation pressure” value ([1]; 361.15 K) was 0.0001522 ± 1.6e-05 kPa and the “vapor or sublimation pressure” value ([1]; 362.15 K) was 0.0001678 ± 1.8e-05 kPa. The “vapor or sublimation pressure” value ([1]; 364.15 K) was 0.0002107 ± 2.2e-05 kPa, the “vapor or sublimation pressure” value ([1]; 366.15 K) was 0.0002637 ± 2.8e-05 kPa and the “vapor or sublimation pressure” value ([1]; 368.15 K) was 0.0003248 ± 3.4e-05 kPa. The “vapor or sublimation pressure” value ([1]; 370.15 K) was 0.0004227 ± 4.5e-05 kPa, the “vapor or sublimation pressure” value ([1]; 372.15 K) was 0.0005258 ± 5.6e-05 kPa and the “vapor or sublimation pressure” value ([1]; 374.15 K) was 0.0006715 ± 7.1e-05 kPa. For the same molecule, the “vapor or sublimation pressure” value ([1]; 376.15 K) was 0.0008044 ± 8.5e-05 kPa, the Normal melting temperature [1] was 125.4 ± 0.5 °C and the “Molar enthalpy of transition or fusion” value [2] was 6.33 ± 0.263 kcal/mol.
